Article PMC6368365, “Didehydro-Cortistatin A Inhibits HIV-1 by Specifically Binding to the Unstructured Basic Region of Tat” (mBio, 2019)

Tests used:
recombinant Tat = target: T1, recombinant Tat (Human immunodeficiency virus type 1 group M subtype B, UniProt P69697); assay: DARTS assay (protection from proteinase K); type: binding, HIV-1; details: 20 min room temperature, Western blot
T1 construct: pTatC6H-1 (NIH AIDS Reagent Program) plasmid encoding C-terminal 6xHistidine Tat1-86 (HXB3, subtype B); made in house; host or cells: E. coli BL21 (plasmid pTatC6H-1, NIH AIDS Reagent Program)
T1 sequence (P69697 whole entry): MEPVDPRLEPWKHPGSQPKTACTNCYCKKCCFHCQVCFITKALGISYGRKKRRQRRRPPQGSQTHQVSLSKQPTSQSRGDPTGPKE
Experimental: To confirm that dCA stabilizes Tat structure, we performed drug affinity responsive target stability (DARTS) assays to measure the protection against proteolysis conferred on the target protein by interaction with a small molecule. For this purpose, we incubated Tat with several concentrations of dCA and different concentrations of proteinase K (PK) for 20 min at room temperature. PK digests proteins preferably after hydrophobic, aliphatic, and aromatic residues. The protection was determined by Western blotting with an anti-His antibody (Fig. 5B). Tat alone was proportionally degraded with increasing concentrations of PK. […] Both the fluorescence assays and the DARTS assays support the notion that dCA stabilizes Tat protein.
dCA or an analog of dCA (analog 2) was incubated with 30 ng of recombinant Tat for 20 min at room temperature. Then PK (Ambion) was added at different concentrations. The remaining Tat was quantified by Western blotting using polyclonal anti-Tat antibodies (AIDS Reagent Program) at a 1:2,000 dilution.

FLAG-tagged Rev = target: T2, FLAG-tagged Rev (Human immunodeficiency virus type 1 group M subtype B, UniProt P04618); assay: Confocal immunofluorescence of FLAG-Rev subcellular localization; type: cell-based, HIV-1; details: 100 nM dCA, HeLa-CD4-LTR-Luc cells
T2 construct: expressed in transfected cells; host or cells: HeLa-CD4-LTR-Luc
T2 sequence (P04618 whole entry, looked up): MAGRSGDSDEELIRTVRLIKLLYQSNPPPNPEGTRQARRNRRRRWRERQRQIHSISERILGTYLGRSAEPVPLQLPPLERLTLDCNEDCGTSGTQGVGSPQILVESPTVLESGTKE
Text: (§1) If dCA were to bind the basic domain of Tat in its disordered form, then one would predict it might also bind to other basic peptide sequences and block their functions. The two well-known proteins that share a similar basic domain with Tat are HIV-1 Rev protein and the cellular protein Hexim-1 (Fig. 3A). As such, we investigated whether dCA could inhibit these similar basic domain functions. The basic domain of Rev is responsible for its nuclear localization ([31]); therefore, we assessed whether dCA could impact the subcellular localization of Rev (Fig. 3B) as previously shown for Tat ([10]). We transfected HeLa-CD4-LTR-Luc cells with a plasmid expressing FLAG-tagged Rev and assessed Rev localization in the presence of 100 nM dCA. […] Twenty-four hours later, cells were collected, and total, nuclear, and cytoplasmic mRNAs were extracted, reverse transcribed, and quantified by quantitative real-time PCR (qRT-PCR).
(§2) (A) Sequence of the basic domains of HIV Tat HXB3, HIV Rev Bru and intracellular Hexim-1. […] (C) Quantification of the nucleolar fluorescence of panel B using ImageJ. […] Total, nuclear, and cytoplasmic mRNAs were extracted, and viral messages were determined by qRT-PCR. […] (G) Quantification of nuclear fluorescence of panel F using ImageJ. […] Statistical significance was determined using one-way ANOVA with post hoc Tukey’s test. ns, not significant; ***, P < 0.0001; **, P < 0.001. […]

FLAG-Tat = target: T3, FLAG-Tat (Human immunodeficiency virus type 1 group M subtype B, UniProt P69697); assay: Confocal immunofluorescence of FLAG-Tat subcellular localization; type: cell-based, HIV-1; details: 100 nM dCA, HeLa-CD4-LTR-Luc cells
T3 construct: expressed in transfected cells; host or cells: HeLa-CD4-LTR-Luc
T3 sequence (P69697 whole entry): as the sequence (P69697 whole entry) above
Text: as §1, §2

[1] = MTT viability assay, 72 h; type: cell-based; details: human, HeLa-CD4-LTR-LacZ cells, mean ± SD, n = 2 to 3
Experimental: The assay was performed with MTT [3-(4,5-dimethyl-2-thiazolyl)-2,5-diphenyl-2H-tetrazolium bromide] as described in reference.

[2] = parameters: method as in PMID 22817991, PMID 29045830, PMID 25613133; details: cited from earlier work

For `CN(C)C1CC23CCC4(O2)C(=CCC2(C)C(c5ccc6ccncc6c5)=CCC24)C=C3C(O)C1O` (centres unmarked) [dCA, didehydro-cortistatin A], the “protection of Tat from proteinase K degradation” value (recombinant Tat) was “Tat degradation by PK was significantly reduced”, the “subcellular localization of Rev” value (FLAG-tagged Rev) was “localization of Rev was left unchanged” and the “subcellular localization of Tat” value (FLAG-Tat) was “significant redistribution of Tat to the periphery of the nucleolus”. For the same compound, the CC50 at 72 h [1] was 20 µM and the solubility in water [2] was “very soluble in water”.
